The test system of data set [1] is Rhipicephalus sanguineus (Brown Dog Tick). As to the kind of experiment: whole plant or invertebrate. As to conditions: for mortality at 200 ppm: Rhipicephalus sanguineus, read-out: Contact SP Rhicicep PCT Mortality (%); for Contact SP Rhicicep PCT Mortality (%): 200 ppm. The source says:
A solution of the test compound was used to coat the inner wall of glass vials and to treat two filter papers. Once dried, one filter paper was placed in the cap of the vial and the other in the bottom of the vial. Each treated vial was infested with 10 adult Rhipicephalus sanguineus (Brown Dog Tick). […]

The next data set relates to Haematobia irritans. The experiment in a line: whole plant or invertebrate. As to conditions: 5 μg/cm^2; for mortality at 5 µg/cm2: Haematobia irritans, read-out: Contact SP Horn Fly PCT Mortality (%). The procedure:
(§1) A solution of the test compound was used to treat a filter paper contained within a Petri dish and the filter paper was allowed to evaporate to dryness. A small piece of absorbent cotton moistened with 10% sucrose and ten adult flies (Haematobia irritans or Stomoxys calcitrans) were added to each dish. Dishes were capped and held at room temperature. Assessments were performed at 4 and 24 hours after infestation in comparison with untreated controls.

Another data set concerns Stomoxys calcitrans. As to the kind of experiment: whole plant or invertebrate. The settings on record: 5 μg/cm^2; for mortality at 5 µg/cm2: Stomoxys calcitrans, read-out: Contact SP Stable Fly PCT Mortality. As to the method: as §1
The subject of another data set is Ctenocephalides felis. As to the kind of experiment: whole plant or invertebrate. The settings on record: 72 hr; for mortality at 200 ppm: Ctenocephalides felis, read-out: Assay: Minilnge Organism: C. felis Test Parameter: PCT Mortal; for Assay: Minilnge Organism: C. felis Test Parameter: PCT Mortal: Dose: 200 ppm.
Data set [2] relates to Haemonchus contortus larvae. As to the kind of experiment: Activity against H. contortus, larval development L1 to L3 (LDA). The settings on record: 5 ppm; 4 days. As to the method:
Twenty L1 Haemonchus contortus larvae were added to wells of a microtitre plate containing a nutrient medium and the test compound in DMSO. The microtitre plate was then held at 27° C. where the L1 larvae were allowed to develop. […] Larvae exposed to DMSO and no test compound served as controls

Structures are written as SMILES. Like-named read-outs stand apart in the source and are kept apart here.

Turning to `CC(C)CNC(=O)c1ccc(COc2cccc(C(F)(F)F)c2)cn1` [Compound 5], the mortality at 200 ppm in data set [1] (timepoint 4 hrs) was found to be 50%; in data set [1] (timepoint 24 hrs), 80%. Further, the mortality at 5 µg/cm2 is 100% with Haematobia irritans (timepoint 4 hrs), 100% with Haematobia irritans (timepoint 24 hrs), 70% in the data set on Stomoxys calcitrans (4 hrs) and 90% in the data set with Stomoxys calcitrans (24 hrs).

As to `CC(C)CNC(=O)c1ccc(COc2ccc(OC(F)(F)F)cc2)cn1` [Compound 10], the values for the mortality at 200 ppm in data set [1] (timepoint 4 hrs) and in data set [1] (timepoint 24 hrs) were 0% and 100%, respectively. The mortality at 5 µg/cm2 in the data set with Haematobia irritans (timepoint 4 hrs) and with Haematobia irritans (timepoint 24 hrs) was 90% throughout.

Turning to `CC(C)CNC(=O)c1ccc(CCOc2cccc(OC(F)(F)F)c2)cn1` [Compound 12], the mortality at 5 µg/cm2 in the data set on Haematobia irritans (timepoint 4 hrs) came to 80%; with Haematobia irritans (timepoint 24 hrs), 100%; in the data set with Stomoxys calcitrans (4 hrs), 50%; in the data set with Stomoxys calcitrans (24 hrs), 90%.

Consider `O=C(NCC1CCOCC1)c1ccc(COc2ccc(OC(F)(F)F)cc2)cn1` [Compound 24], for which the mortality at 200 ppm (in data set [1] (timepoint 4 hrs); in data set [1] (timepoint 24 hrs); with Ctenocephalides felis) was 0% in each case. The mortality at 5 µg/cm2 amounted to 50% in the data set on Haematobia irritans (timepoint 4 hrs) and 70% with Haematobia irritans (timepoint 24 hrs).

For `O=C(NCC1CC1)c1ccc(COc2ccc(OC(F)(F)F)cc2)cn1` [Compound 33], the mortality at 200 ppm in data set [1] (timepoint 4 hrs) and in data set [1] (timepoint 24 hrs) was 100% throughout. Besides, the mortality at 5 µg/cm2 in the data set with Haematobia irritans (timepoint 4 hrs) was 100%; in the data set with Haematobia irritans (timepoint 24 hrs), 100%; with Stomoxys calcitrans (4 hrs), 80%; in the data set with Stomoxys calcitrans (24 hrs), 80%.

Take `COC(CNC(=O)c1ccc(COc2cccc(OC(F)(F)F)c2)cn1)OC` [Compound 44]: the mortality at 200 ppm in data set [1] (timepoint 4 hrs) and in data set [1] (timepoint 24 hrs) was 100% in each case. For the same compound, the mortality at 5 µg/cm2 in the data set with Haematobia irritans (timepoint 4 hrs) and with Haematobia irritans (timepoint 24 hrs) was 80% throughout.

Take `O=C(NCC1CC1)c1ccc(COc2cccc(OC(F)(F)F)c2)cn1` [Compound 52]: the “Contact SP Horn Fly PCT Mortality (%)” value in the data set on Haematobia irritans (timepoint 4 hrs) and with Haematobia irritans (timepoint 24 hrs) was 80% each time. In addition, the “Contact SP Stable Fly PCT Mortality” value in the data set with Stomoxys calcitrans (4 hrs) was 60%; in the data set on Stomoxys calcitrans (24 hrs) it was 80%.

Consider `CC(C)CNC(=O)c1ccc(COc2cccc(OC(F)(F)F)c2)cn1` [Compound 54], for which the figures for the mortality at 200 ppm in data set [1] (timepoint 4 hrs) and in data set [1] (timepoint 24 hrs) were 0% and 100%, respectively. Further, the mortality at 5 µg/cm2 in the data set with Haematobia irritans (timepoint 4 hrs) and with Haematobia irritans (timepoint 24 hrs) was 100% each time.

As to `Cc1cccc(OCc2ccc(C(=O)NCC(C)C)nc2)c1` [Compound 63], the “Contact SP Rhicicep PCT Mortality (%)” value in data set [1] (timepoint 4 hrs) and in data set [1] (timepoint 24 hrs) was 100% throughout. The “Contact SP Horn Fly PCT Mortality (%)” value in the data set on Haematobia irritans (timepoint 4 hrs) and in the data set with Haematobia irritans (timepoint 24 hrs) was 100% throughout. Moreover, the “Contact SP Stable Fly PCT Mortality” value with Stomoxys calcitrans (4 hrs) and in the data set with Stomoxys calcitrans (24 hrs) was 80% each time.

With `CCc1cccc(OCc2ccc(C(=O)NCC(OC)OC)nc2)c1` [Compound 65], the mortality at 200 ppm came to 80% in data set [1] (timepoint 4 hrs) and 100% in data set [1] (timepoint 24 hrs). Further, the mortality at 5 µg/cm2 in the data set with Stomoxys calcitrans (4 hrs) turned out to be 50%; in the data set on Stomoxys calcitrans (24 hrs), 60%.

On to `C=C(C)CNC(=O)c1ccc(COc2cccc(CC)c2)cn1` [Compound 76], for which the mortality at 200 ppm in data set [1] (timepoint 4 hrs) stood at 80%; in data set [1] (timepoint 24 hrs), 100%. Besides, the mortality at 5 µg/cm2 in the data set with Haematobia irritans (timepoint 4 hrs) and in the data set on Haematobia irritans (timepoint 24 hrs) was 0% throughout.

With `CCc1cccc(OCc2ccc(C(=O)NCC(C)C)nc2)c1` [Compound 77], the mortality at 200 ppm in data set [1] (timepoint 4 hrs) and in data set [1] (timepoint 24 hrs) was 100% in each case. In addition, the mortality at 5 µg/cm2 came out at 100% in the data set with Haematobia irritans (timepoint 4 hrs), 100% in the data set with Haematobia irritans (timepoint 24 hrs), 60% with Stomoxys calcitrans (4 hrs) and 80% with Stomoxys calcitrans (24 hrs).

Turning to `COC(CNC(=O)c1ccc(COc2cc(F)cc(Br)c2)cn1)OC` [Compound 107], the values for the mortality at 200 ppm (in data set [1] (timepoint 4 hrs); in data set [1] (timepoint 24 hrs); with Ctenocephalides felis) were 0%, 70% and 90%, respectively. For the same compound, the mortality at 5 µg/cm2 in the data set on Haematobia irritans (timepoint 4 hrs) and with Haematobia irritans (timepoint 24 hrs) was 0% each time.

Take `N#CCCNC(=O)c1ccc(COc2cc(F)cc(Br)c2)cn1` [Compound 108]: the mortality at 200 ppm in data set [1] (timepoint 4 hrs) and in data set [1] (timepoint 24 hrs) was 70% in each case. In addition, the mortality at 5 µg/cm2 is 100% in the data set with Haematobia irritans (timepoint 4 hrs), 100% with Haematobia irritans (timepoint 24 hrs), 0% in the data set on Stomoxys calcitrans (4 hrs) and 0% with Stomoxys calcitrans (24 hrs).

Turning to `CSCCNC(=O)c1ccc(COc2cc(F)cc(Br)c2)cn1` [Compound 115], the results for the “Contact SP Horn Fly PCT Mortality (%)” value with Haematobia irritans (timepoint 4 hrs) and in the data set with Haematobia irritans (timepoint 24 hrs) were 0% and 60%, respectively.

With `O=C(NCC1CC1)c1ccc(COc2cc(F)cc(Br)c2)cn1` [Compound 119], the “Contact SP Horn Fly PCT Mortality (%)” value in the data set with Haematobia irritans (timepoint 4 hrs) was found to be 80%; in the data set with Haematobia irritans (timepoint 24 hrs) it was 100%. The results for the “Contact SP Stable Fly PCT Mortality” value in the data set on Stomoxys calcitrans (4 hrs) and with Stomoxys calcitrans (24 hrs) were 60% and 70%, respectively.

With `O=C(NCCc1ccccn1)c1ccc(COc2cc(F)cc(Br)c2)cn1` [Compound 121], the “Contact SP Horn Fly PCT Mortality (%)” value in the data set with Haematobia irritans (timepoint 4 hrs) and in the data set with Haematobia irritans (timepoint 24 hrs) was 80% in each case.

Turning to `O=C(NC1CCC1)c1ccc(COc2cc(F)cc(Br)c2)cn1` [Compound 122], the “Contact SP Rhicicep PCT Mortality (%)” value stood at 0% in data set [1] (timepoint 4 hrs) and 80% in data set [1] (timepoint 24 hrs). Also, the “Contact SP Horn Fly PCT Mortality (%)” value in the data set on Haematobia irritans (timepoint 4 hrs) and in the data set with Haematobia irritans (timepoint 24 hrs) was 0% in each case.

`CN(C)CC(C)(C)CNC(=O)c1ccc(COc2cc(F)cc(Br)c2)cn1` [Compound 124]: the mortality at 200 ppm in data set [1] (timepoint 4 hrs) and in data set [1] (timepoint 24 hrs) was 70% throughout. For the same compound, the mortality at 5 µg/cm2 in the data set on Haematobia irritans (timepoint 4 hrs) and with Haematobia irritans (timepoint 24 hrs) was 100% in each case.

Regarding `CC(C)CNC(=O)c1ccc(COc2cc(F)cc(Br)c2)cn1` [Compound 125], the mortality at 5 µg/cm2 in the data set on Haematobia irritans (timepoint 4 hrs) and in the data set with Haematobia irritans (timepoint 24 hrs) was 100% in each case.

Consider `CCCCNC(=O)c1ccc(COc2cc(F)cc(Br)c2)cn1` [Compound 127], for which the mortality at 200 ppm in data set [1] (timepoint 4 hrs) worked out at 90%; in data set [1] (timepoint 24 hrs) it was 100%. Further, the mortality at 5 µg/cm2 with Haematobia irritans (timepoint 4 hrs) and in the data set with Haematobia irritans (timepoint 24 hrs) was 70% throughout.

With `CC(C)CCNC(=O)c1ccc(COc2cc(F)cc(Br)c2)cn1` [Compound 129], the mortality at 5 µg/cm2 in the data set on Haematobia irritans (timepoint 4 hrs) and in the data set with Haematobia irritans (timepoint 24 hrs) was 40% throughout.

`CC(C)CNC(=O)c1ccc(COCc2cccc(OC(F)(F)F)c2)cn1` [Compound 132]: the “Contact SP Horn Fly PCT Mortality (%)” value in the data set on Haematobia irritans (timepoint 4 hrs) and in the data set with Haematobia irritans (timepoint 24 hrs) was 100% throughout.

On to `CC(C)CNC(=O)c1ccc(COCc2ccc(OC(F)(F)F)cc2)cn1` [Compound 133], for which the mortality at 5 µg/cm2 in the data set on Haematobia irritans (timepoint 4 hrs) and in the data set on Haematobia irritans (timepoint 24 hrs) was 80% throughout.

For the compound `CC(C)CNC(=O)c1ccc(OCc2ccc(OC(F)(F)F)cc2)cn1` [Compound 136], the “LDA SP H. cont. PCT Mot M” value in data set [2] was found to be 89.2655%.

Consider `O=C(NCC1CC1)c1ccc(COc2cccc(-c3cccc(F)c3)c2)cn1` [Compound 176], for which the “Contact SP Rhicicep PCT Mortality (%)” value in data set [1] (timepoint 4 hrs) was 90%; in data set [1] (timepoint 24 hrs), 100%. Also, the “Assay: Minilnge Organism: C. felis Test Parameter: PCT Mortal” value (from here on “Assay: Minilnge Organism”) with Ctenocephalides felis was 70%.

`CCCNC(=O)c1ccc(COc2cccc(-c3cccc(F)c3)c2)cn1` [Compound 177]: the “Contact SP Rhicicep PCT Mortality (%)” value in data set [1] (timepoint 4 hrs) came out at 80%; in data set [1] (timepoint 24 hrs), 90%. The “Assay: Minilnge Organism” value with Ctenocephalides felis is listed as 40%.

As for `C=C(C)CNC(=O)c1ccc(COc2cccc(-c3cccc(F)c3)c2)cn1` [Compound 179], the “Contact SP Rhicicep PCT Mortality (%)” value in data set [1] (timepoint 4 hrs) and in data set [1] (timepoint 24 hrs) was 100% each time. For the same compound, the “Assay: Minilnge Organism” value with Ctenocephalides felis was 70%.

As to `COC(CNC(=O)c1ccc(COc2cccc(-c3ccccc3)c2)cn1)OC` [Compound 185], the “Assay: Minilnge Organism” value with Ctenocephalides felis is 90%.

Turning to `C=C(C)CNC(=O)c1ccc(COc2cccc(-c3ccccc3)c2)cn1` [Compound 197], the “Assay: Minilnge Organism” value in the data set with Ctenocephalides felis is 90%.

For the compound `CC(C)CNC(=O)c1ccc(COc2cccc(-c3ccccc3)c2)cn1` [Compound 198], the “Contact SP Rhicicep PCT Mortality (%)” value in data set [1] (timepoint 4 hrs) and in data set [1] (timepoint 24 hrs) was 100% each time. For the same compound, the “Assay: Minilnge Organism” value with Ctenocephalides felis stood at 90%.

For the compound `CC(C)CNC(=O)c1ccc(CCOc2ccc(C(F)(F)F)cc2)cn1` [Compound 206], the mortality at 200 ppm in data set [1] (timepoint 4 hrs) and in data set [1] (timepoint 24 hrs) was 100% each time. Besides, the “LDA SP H. cont. PCT Mot M” value in data set [2] is recorded as 100%.

With `O=C(NCC1CC1)c1ccc(CCOc2cccc(C(F)(F)F)c2)cn1` [Compound 208], the “Contact SP Horn Fly PCT Mortality (%)” value with Haematobia irritans (timepoint 4 hrs) and in the data set on Haematobia irritans (timepoint 24 hrs) was 100% in each case.

As to `CC(C)CNC(=O)c1ccc(CCOc2ccc(F)c(F)c2)cn1` [Compound 224], in data set [2], the “LDA SP H. cont. PCT Mot M” value is 98%.

Turning to `O=C(NCC1CC1)c1ccc(CCOc2cccc(OC(F)(F)F)c2)cn1` [Compound 243], the mortality at 200 ppm worked out at 100% in data set [1] (timepoint 4 hrs), 100% in data set [1] (timepoint 24 hrs) and 80% in the data set with Ctenocephalides felis.

Source of the values: patent publication US8946270B2, “Amido-pyridyl ether compounds and compositions and their use against parasites” (Merial Limited, priority 2011, dated 2015).
